Results from PMC5597618, “Identification and characterization of the novel reversible and selective cathepsin X inhibitors” (Scientific Reports, 2017).
Like-named read-outs stand apart in the source and are kept apart here.

Columns and labels:
cathepsin X [1] = conditions: cited from earlier work
cathepsin X [2] = target: T1, cathepsin X (Homo sapiens, UniProt Q9UBR2); experiment: Reversibility of binding: washout experiment and dilution method; type: biochemical; parameters: made in house; host or cells: Pichia pastoris
Description: The reversibility of binding was determined in two separate experiments. In the washout experiment[47] 20 nM cathepsin X was mixed with a saturating level of the inhibitor (100 μM) and incubated for 1 hour at room temperature. One half of the reaction mixture was assayed for activity and the other half was diluted approximately 200000-fold with assay buffer prior to the activity assay. Step-wise dilution and concentration was performed on a Centricon (Millipore) with 10 kDa cut-off. In the dilution method[19] cathepsin X (5 μM) was incubated with inhibitor (100 μM). Half the reaction mixture was diluted 100-fold with the assay buffer containing substrate and immediately assayed for activity, the other half was incubated for 2 hours, diluted 100-fold and then assayed for activity.

[3] = target: T2, Cathepsin B (endopeptidase a.) (Homo sapiens, UniProt P07858); experiment: Ki against cathepsin B endopeptidase activity (Z-RR-AMC); type: biochemical; conditions: SigmaPlot at 3 different substrate concentrations; pH 6.0
T2 construct: made in house; host or cells: E. coli
Description: (§1) Recombinant or native human cathepsins were used: recombinant cathepsin X and cathepsin S were expressed in Pichia pastoris, recombinant cathepsins B and L in E. coli, [43], native cathepsin H was isolated from human liver. Assay buffers for determining activities of cathepsins X and L consisted of 100 mM sodium acetate buffer, pH 5.5, for cathepsins H, S and B (endopeptidase activity) of 100 mM phosphate buffer pH 6.8, 6.5 and 6.0, respectively and for cathepsin B (exopeptidase activity) of 60 mM acetate buffer pH 5.0. Each assay buffer contained 0.01% Triton X-100 to prevent false positive inhibition due to aggregation of compounds[45], 5 mM cysteine, 1.5 mM EDTA and 0.1% PEG 8000. Enzymes were activated at 37 °C for 5 min before the assays.
(§2) Ki was determined by measuring the initial rate of hydrolysis at three different substrate concentrations (Supplementary Table S2) in the presence of seven different compound concentrations (0, 20, 40, 60, 80, 100 and 200 μM). 90 μL of the activated cathepsin was added to a black 96-well plate with 5 μL of the substrate and 5 μL of the compound. Formation of the fluorescent degradation product was monitored continuously at 460 nm ± 10 nm with excitation at 380 nm ± 20 nm (for AMC substrates) and, as noted above for Abz substrates, at 37 °C. All measurements were performed twice and in duplicate. The resulting data were analyzed by non-linear regression using the software SigmaPlot®, Enzyme Kinetics Module™ 1.3 and were fitted to the equation v = v max [S]/([S] (1 + [I]/αK i ) + K m (1 + [I]/K i )) (first group of compounds). For Ki determination against cathepsin X for the compounds from the second group, progress curves in the absence and presence of each putative inhibitor were fitted to the reaction mechanism presented in Fig. 3b. In this case the resulting data as well as reactivation curves were fitted to the equation system presented in Fig. 3c using ENZO application. For calculation of kinetic parameters from reaction progress curves the fluorescence coefficient for conversion of arbitrary fluorescence units to concentration was first determined. The fluorescence coefficient was calculated as the slope from the plot of initial substrate concentration vs. height of the plateau of the progress curve after complete hydrolysis of increasing concentrations of substrate, using linear regression.
(§3) Supplementary Table S2. Substrates used for the various cathepsins and their concentrations […]
(§4) Enzyme Substrate Concentration (µM) Reference/Company cathepsin X Abz-FEK(Dnp)-OH 3.25, 6.5, 13 Puzer et al.3 cathepsin B - endopept. Z-RR-AMC 60, 180, 360 Bachem cathepsin B - exopept. Abz-GIVRAK(Dnp)-OH 1, 3, 6 Bachem cathepsin S Z-VVR-AMC 0.5, 1, 1.5 Biomol cathepsin L Z-FR-AMC 0.5, 1, 4 Bachem cathepsin H Z-R-AMC 20, 80, 160 Biomol […]

Cathepsin H = target: T3, Cathepsin H (Homo sapiens, UniProt P09668); experiment: Ki against cathepsin H (Z-R-AMC); type: biochemical; conditions: SigmaPlot at 3 different substrate concentrations; pH 6.8
T3 construct: native cathepsin H was isolated from human liver; from tissue; host or cells: human liver
Description: as §1, §2, §3, §4

cathepsin X [4] = target: T1, cathepsin X; experiment: Determination of relative inhibition of cathepsin X; type: biochemical; parameters: made in house; host or cells: Pichia pastoris
Description: as §1
Abz-FEK(Dnp)-OH was used as cathepsin X specific substrate in activity assays. 90 μL of activated cathepsin X (20 nM) was added to a black 96-well plate with 5 μL of substrate (3.25 μM final concentration) and 5 μL of the compound (50 μM final concentration). The reaction was monitored continuously at 420 nm ± 10 nm with excitation at 320 nm ± 20 nm and at 37 °C. Relative inhibition (%) was calculated with the equation (1 − v i/v 0) × 100, where v i is reaction velocity in the presence of the compound and v 0 is reaction velocity without the compound.

cathepsin X [5] = target: T1, cathepsin X; experiment: Determination of Ki values and inhibition mechanism against cathepsin X (Abz-FEK(Dnp)-OH substrate); type: biochemical; parameters: made in house; host or cells: Pichia pastoris; conditions: for Inhibition mechanism: ENZO
Description: as §1, §2, §3, §4

PC-3 cells = experiment: Real time cell migration assay (xCELLigence, CIM plates); type: cell-based, human; conditions: 10 μM, compound in upper and bottom compartments, vs DMSO; for inhibition at 10 µM: Homo sapiens, PC-3
Description: (§5) Human prostate cancer cell line PC-3 cells (obtained from ATCC, Manassas, USA; ATCC Number: CRL-1435) were cultured in F-12 (Gibco) and Advanced DMEM (Gibco) (1:1) with 10% FBS, 1% penicillin/streptomycin and 1% L-glutamine. Rat pheochromocytoma PC-12 cells (obtained from ATCC, Manassas, USA; ATCC Number: CRL-1721) were cultured in Advanced DMEM (Gibco) with 5% FBS, 10% heat-inactivated horse serum, 1% penicillin/streptomycin and 1% L-glutamine.
Cell migration assay was performed on a Real-Time Cell Analyzer Dual Plate (RTCA DP) Instrument, xCELLigence System (ACEA Biosciences). CIM plates were coated with fibronectin (10 μg/ml, BD Biosciences) on the down and upper side of the microporous PET membrane for 30 min at room temperature and 2 hours at 37 °C, respectively. Excess fibronectin was removed and wells washed with phosphate buffer saline (PBS). Compounds (10 μM) were added to the complete media (lower chambers) or serum-free media (upper chambers). 0.1% DMSO was used as a control. 2 × 10^4 cells were plated per well. In additional experimental setting, inhibitors were added only to the upper chambers 3 hours after experiment started in order to measure their impact only on the cell migration and not the adhesion. Impedance data, reported as cell index, were measured continuously every 15 min for 72 hours and then analyzed with the RTCA Software (ACEA Biosciences, Inc.). Results are normalized to cells treated with DMSO.

Cathepsin S = target: T4, Cathepsin S (Homo sapiens, UniProt P25774); experiment: Ki against cathepsin S (Z-VVR-AMC); type: biochemical; conditions: SigmaPlot at 3 different substrate concentrations; pH 6.5
T4 construct: made in house; host or cells: Pichia pastoris
Description: as §1, §2, §3, §4

PC-12 cells = experiment: Neurite outgrowth assay; type: cell-based, rat; conditions: 10 µM; 48 h; vs DMSO control
Description: as §5
PC-12 cells were seeded in 96-well plates (4 × 10^4/well) coated with poly-L-lysine. Next day, the cells were treated with compounds (10 µM) in serum-free medium, and neurite outgrowth was measured after 48 h using Neurite Outgrowth Staining Kit (Molecular Probes), in accordance with the manufacturer’s instructions. Fluorescence intensity was measured at 525 nm with excitation at 483 nm for cell viability indicator and at 567 nm with excitation at 554 nm for cell membrane indicator. Results, expressing increased neurite outgrowth, were normalized to cells treated with DMSO.

Cathepsin L = target: T5, Cathepsin L (Homo sapiens, UniProt P07711); experiment: Ki against cathepsin L (Z-FR-AMC); type: biochemical; conditions: SigmaPlot at 3 different substrate concentrations; pH 5.5
T5 construct: made in house; host or cells: E. coli
Description: as §1, §2, §3, §4

[6] = target: T6, Cathepsin B (exopeptidase a.) (Homo sapiens, UniProt P07858); experiment: Ki against cathepsin B exopeptidase activity (Abz-GIVRAK(Dnp)-OH); type: biochemical; conditions: SigmaPlot at 3 different substrate concentrations; pH 5.0
T6 construct: made in house; host or cells: E. coli
Description: as §1, §2, §3, §4

[7] = target: T7, cathepsin X in lysates of PC-3 cells (Homo sapiens, UniProt Q9UBR2); experiment: Cathepsin X activity in PC-3 cell lysates; type: cell-based; conditions: 10 μM
T7 construct: endogenous in cells; host or cells: PC-3
Description: To detect cathepsin X activity in cell lysates, 95 μL of activated cell lysates (0.2 mg/mL total protein in assay buffer) were added to a black 96-well plate containing 5 μL of the substrate. The further procedure was the same as above. In some experiments lysates of non-treated cells were pre-incubated with 10 μM of compounds for 30 minutes and then activity was measured as described above.
For testing the enzyme activity in cell lysates, cells were treated with 10 μM of compounds. After 24 hours lysates were prepared in 50 mM Na acetate buffer pH 5.5 with 1 mM EDTA, 100 mM NaCl and 0.25% Triton X-100. Total protein concentration was determined by DC Protein Assay (Bio Rad) according to the instructions.

[8] = screening at 50 μM compound, read-out: relative inhibition of cathepsin X
[9] = first group, SigmaPlot non-linear regression at 3 different substrate concentrations
[10] = second group, 50 μM compound, 1 h preincubation, read-out: % inhibition (1 h preincubation)
[11] = second group, progress curve analysis with ENZO

T4 sequence (P25774 115-331): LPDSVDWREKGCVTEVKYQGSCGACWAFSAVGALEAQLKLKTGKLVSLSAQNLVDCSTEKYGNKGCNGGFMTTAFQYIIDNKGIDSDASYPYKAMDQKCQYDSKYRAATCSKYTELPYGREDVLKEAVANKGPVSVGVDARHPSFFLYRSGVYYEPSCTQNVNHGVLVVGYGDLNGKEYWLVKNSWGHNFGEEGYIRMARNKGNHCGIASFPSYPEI
T1 sequence (Q9UBR2 62-303): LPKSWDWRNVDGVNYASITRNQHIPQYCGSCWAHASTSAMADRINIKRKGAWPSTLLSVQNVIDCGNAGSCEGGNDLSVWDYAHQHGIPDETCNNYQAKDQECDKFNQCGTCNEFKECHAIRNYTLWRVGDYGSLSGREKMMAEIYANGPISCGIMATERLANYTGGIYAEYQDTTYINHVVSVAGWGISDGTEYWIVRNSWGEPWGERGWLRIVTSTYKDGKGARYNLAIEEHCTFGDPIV
T5 sequence (P07711 114-333): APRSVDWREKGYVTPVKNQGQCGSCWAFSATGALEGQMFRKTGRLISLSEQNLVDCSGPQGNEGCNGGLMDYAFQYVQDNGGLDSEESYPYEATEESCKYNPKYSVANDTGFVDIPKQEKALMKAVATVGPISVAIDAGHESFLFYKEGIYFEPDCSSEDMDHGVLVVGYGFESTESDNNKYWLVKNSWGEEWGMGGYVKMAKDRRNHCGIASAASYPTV
T3 sequence (P09668 116-335 limits assumed, other chains not shown): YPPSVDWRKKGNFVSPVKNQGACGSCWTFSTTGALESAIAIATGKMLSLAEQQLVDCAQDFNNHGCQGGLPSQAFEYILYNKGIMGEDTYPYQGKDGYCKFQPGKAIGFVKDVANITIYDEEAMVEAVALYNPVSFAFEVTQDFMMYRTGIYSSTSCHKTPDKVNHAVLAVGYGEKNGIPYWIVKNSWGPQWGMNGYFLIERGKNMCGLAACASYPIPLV
T7 sequence (Q9UBR2 62-303): as the sequence (Q9UBR2 62-303) above

Compound	cathepsin X activity after washout (cathepsin X [2]; 1-hour pre-incubation, 100 μM inhibitor, 200000-fold dilution, 10 kDa cut-off)	enzyme activity recovered after 100-fold rapid dilution (cathepsin X [2]; dilution method, cathepsin X 5 μM, inhibitor 100 μM)	Ki [3]	Ki (Cathepsin H)	inhibition at 50 µM (cathepsin X [4]; [8])	Ki (cathepsin X [5]; [9])	Ki (Cathepsin S)	Ki (Cathepsin L)	Ki [6]	inhibition at 50 µM (cathepsin X [4]; [10])	Inhibition mechanism (cathepsin X [5]; second group)	Ki (cathepsin X [5]; [11])	Ki Cathepsin S (Cathepsin S)	Ki Cathepsin L (Cathepsin L)	inhibition of cathepsin X enzyme activity in lysates of PC-3 cells [7]	kinact/Ki (cathepsin X [1])	preference for cathepsin X over cathepsins B or L (cathepsin X [1])	inhibition at 10 µM (PC-3 cells)	increase of neurite outgrowth (PC-12 cells)	inhibition of PC-3 cell migration (PC-3 cells)
CCCNC(=O)C1OC1C(=O)NC(C(=O)O)C(C)CC (stereo not drawn) [nPrNH-(2 S,3 S)tEps-Ile-OH]	–	–	–	–	–	–	–	–	–	–	–	–	–	–	–	225 M^–1s^–1	10 fold	–	–	–
Cc1ccccc1-n1cnnc1SCC(=O)c1ccc2c(c1)OCCO2 [Compound 20, 1-(2,3-Dihydrobenzo[b][1,4]dioxin-6-yl)-2-((4-(o-tolyl)-4H-1,2,4-triazol-3-yl)thio)ethan-1-one]	–	–	301 ± 214 µM	> 500 µM	> 70%	–	–	–	83.1 ± 7 µM	79%	competitive	8.78 ± 0.39 µM	n.i.	n.i.	–	–	–	15 to 30%	statistically significant increase	–

More lines, main results first:

cathepsin X activity after washout (cathepsin X [2]; 1-hour pre-incubation, 100 μM inhibitor, 200000-fold dilution, 10 kDa cut-off)	enzyme activity recovered after 100-fold rapid dilution (cathepsin X [2]; dilution method, cathepsin X 5 μM, inhibitor 100 μM)	Ki [3]	Ki (Cathepsin H)	inhibition at 50 µM (cathepsin X [4]; [8])	Ki (cathepsin X [5]; [9])	Ki (Cathepsin S)	Ki (Cathepsin L)	Ki [6]	inhibition at 50 µM (cathepsin X [4]; [10])	Inhibition mechanism (cathepsin X [5]; second group)	Ki (cathepsin X [5]; [11])	Ki Cathepsin S (Cathepsin S)	Ki Cathepsin L (Cathepsin L)	inhibition of cathepsin X enzyme activity in lysates of PC-3 cells [7]	Compound	kinact/Ki (cathepsin X [1])	preference for cathepsin X over cathepsins B or L (cathepsin X [1])	inhibition at 10 µM (PC-3 cells)	increase of neurite outgrowth (PC-12 cells)	inhibition of PC-3 cell migration (PC-3 cells)
retained cathepsin X inhibition	remained inhibited	–	–	–	–	–	–	–	–	–	–	–	–	–	CC(C)C[C@H](NC(=O)[C@H]1O[C@@H]1C(=O)O)C(=O)NCCCCN=C(N)N [Compound E-64]	775 M^–1s^–1	–	–	–	–
–	–	392 ± 121 µM	483.1 ± 0.6 µM	60 to 75%	29.2 ± 2.44 µM	463 ± 42.9 µM	902 ± 89.7 µM	210 ± 11 µM	–	–	–	–	–	–	Nc1nc(SCC(=O)c2ccc3c(c2)OCCO3)n[nH]1 [Compound 2, 2-((5-Amino-1H-1,2,4-triazol-3-yl)thio)-1-(2,3-dihydrobenzo[b][1,4]dioxin-6-yl)ethanone]	–	–	15 to 30%	statistically significant increase	–
–	–	> 500 µM	> 500 µM	> 70%	–	–	> 500 µM	120.5 ± 0.9 µM	82%	competitive	5.88 ± 0.21 µM	n.i.	–	trend toward less potent inhibition	Cn1cnc(SCC(=O)c2ccc3c(c2)OCCO3)n1 [Compound 12, 1-(2,3-Dihydrobenzo[b][1,4]dioxin-6-yl)-2-((1-methyl-1H-1,2,4-triazol-3-yl)thio)ethanone]	–	–	–	–	failed to affect cell migration
–	–	> 1000 µM	1870 ± 240 µM	60 to 75%	38.4 ± 0.2 µM	> 1000 µM	975 ± 101 µM	371 ± 97.9 µM	–	–	–	–	–	trend toward less potent inhibition	Cc1[nH]c2ccccc2c1C(=O)CSc1n[nH]c(N)n1 [Compound 1, 2-((5-Amino-1H-1,2,4-triazol-3-yl)thio)-1-(2-methyl-1H-indol-3-yl)ethanone]	–	–	–	–	failed to affect cell migration
